Converted amounts (≈) assume the structure as drawn.
Experiments:
[1] = molecular target: T1, human soluble guanylate cyclase alpha 1 and beta 1 subunits (sGC) stably expressed in Chinese hamster ovary cells (Homo sapiens, UniProt Q02108+Q02153); assay: sGC cellular activator assay: cGMP in CHO cells expressing human sGC, preincubated with ODQ; format: cell-based; details: 40 microM ODQ preincubation, 30 min at room temperature, presence or absence of 50% human serum not given, read-out: EC50 nM, Activity of Compounds in Cellular Assay
T1 construct: expressed in transfected cells; host or cells: Chinese hamster ovary cells, stably transfected
T1 sequence (Q02108 1-690 partner): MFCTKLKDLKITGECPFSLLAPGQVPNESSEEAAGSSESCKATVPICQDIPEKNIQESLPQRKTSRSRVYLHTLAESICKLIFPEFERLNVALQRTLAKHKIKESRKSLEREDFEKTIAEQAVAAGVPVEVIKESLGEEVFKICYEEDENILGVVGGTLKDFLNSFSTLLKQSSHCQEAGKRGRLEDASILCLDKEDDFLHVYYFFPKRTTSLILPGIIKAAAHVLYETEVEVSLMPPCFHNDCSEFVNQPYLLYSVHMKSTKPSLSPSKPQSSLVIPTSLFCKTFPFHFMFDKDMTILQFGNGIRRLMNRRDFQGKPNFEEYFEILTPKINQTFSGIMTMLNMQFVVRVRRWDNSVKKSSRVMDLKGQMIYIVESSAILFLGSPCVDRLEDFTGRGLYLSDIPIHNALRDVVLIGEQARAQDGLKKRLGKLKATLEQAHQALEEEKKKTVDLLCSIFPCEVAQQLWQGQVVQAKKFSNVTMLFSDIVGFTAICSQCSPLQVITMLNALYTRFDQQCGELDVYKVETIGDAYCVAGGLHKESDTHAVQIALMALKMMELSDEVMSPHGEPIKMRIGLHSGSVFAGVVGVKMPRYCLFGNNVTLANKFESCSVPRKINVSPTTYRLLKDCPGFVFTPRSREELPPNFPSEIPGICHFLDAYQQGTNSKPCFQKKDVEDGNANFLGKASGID
T1 sequence (Q02153 1-619): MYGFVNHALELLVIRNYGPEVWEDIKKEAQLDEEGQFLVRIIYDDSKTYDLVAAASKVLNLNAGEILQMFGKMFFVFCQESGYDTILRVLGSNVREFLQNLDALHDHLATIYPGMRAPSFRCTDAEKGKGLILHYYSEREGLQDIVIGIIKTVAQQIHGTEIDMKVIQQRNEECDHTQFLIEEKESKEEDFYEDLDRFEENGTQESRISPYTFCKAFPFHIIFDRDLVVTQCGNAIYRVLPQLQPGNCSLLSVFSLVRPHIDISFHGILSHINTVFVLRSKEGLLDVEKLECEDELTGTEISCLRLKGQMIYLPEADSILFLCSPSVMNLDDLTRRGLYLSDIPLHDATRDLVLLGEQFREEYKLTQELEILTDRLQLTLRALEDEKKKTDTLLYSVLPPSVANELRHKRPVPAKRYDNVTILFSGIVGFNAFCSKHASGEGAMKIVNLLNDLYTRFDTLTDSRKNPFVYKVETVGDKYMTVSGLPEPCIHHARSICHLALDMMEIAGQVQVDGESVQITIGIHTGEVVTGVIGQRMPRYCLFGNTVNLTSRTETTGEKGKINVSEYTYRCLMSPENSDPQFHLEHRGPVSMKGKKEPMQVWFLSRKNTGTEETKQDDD
Procedure, shortened: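 EC50 values derive from HTRF cGMP measurement after test compounds act for thirty minutes at room temperature, with or without 50% human serum. Before dosing, the sGC-transfected CHO cells spend one hour with the inhibitor ODQ (40 microM) in IBMX- and 0.1% BSA-containing buffer.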

[2] = Assessment of solubility: HT solubility in pION buffer, UV spectrophotometry; details: kinetic from dmso stock
[3] = pION system solution buffer, pH 4.5, pH 4.5, aqueous buffer, Solubility (pH 4.5), pH 4.5 buffer, 16-19 h incubation, 1.0% DMSO
[4] = pION system solution buffer, pH 7.4, pH 7.4, aqueous buffer, Solubility (pH 7.4), pH 7.4 buffer, 16-19 h incubation, 1.0% DMSO
[5] = pH 6.8, aqueous buffer, Solubility (pH 6.8), pH 6.8

| Structure (SMILES) | EC50 [1] [nM] | solubility [2, 3] [µg/mL] | solubility [2, 4] [µg/mL] | solubility [2, 5] [µg/mL] |
| --- | --- | --- | --- | --- |
| Cc1ccc(OCc2ccc(CN3CCOCC3)cc2C)c(-c2csc(N3C[C@H]4CC[C@@H](C3)[C@@]4(C)C(=O)O)n2)c1 [Compound 270, 8-methyl-3-{4-[5-methyl-2-(2-methyl-4-morpholin-4-ylmethyl-benzyloxy)-phenyl]-thiazol-2-yl}-3-aza-bicyclo[3.2.1]octane-8(syn)-carboxylic acid] | 96 | 17 (≈ 30.3 µM) | > 56 | – |
| Cc1ccc(OCc2ccc(C(C)N3CCOCC3)cc2C)c(-c2csc(N3CC4CCC(C3)C4C(=O)O)n2)c1 (centres unmarked) [Compound 276] | 45 | 32 (≈ 57 µM) | 41 (≈ 73 µM) | 1.9 (≈ 3.38 µM) |
| COc1cc(CN2CCOCC2)ccc1COc1ccc(C)cc1-c1csc(N2CCC(C(=O)O)CC2)n1 [Compound 278] | 51 | > 53 | 30 (≈ 55.8 µM) | – |
| Cc1ccc(OCc2ccc(CN3CCOCC3)cc2OC(F)(F)F)c(-c2csc(N3C[C@H]4CC[C@@H](C3)[C@H]4C(=O)O)n2)c1 [Compound 280] | 16 | 0.72 (≈ 1.17 µM) | – | 0.9 (≈ 1.46 µM) |
| Cc1ccc(OCc2ccc(C(=O)N3CCOCC3)c(C)c2)c(-c2csc(N3C[C@H]4CC[C@@H](C3)[C@H]4C(=O)O)n2)c1 [Compound 281] | 28 | < 0.1 | – | 4.6 (≈ 8.19 µM) |
| Cc1ccc(OCc2c(C)cc(C(=O)N3CCCCC3)cc2C)c(-c2csc(N3C[C@H]4CC[C@@H](C3)[C@H]4C(=O)O)n2)c1 [Compound 282] | 39 | < 0.1 | – | 0.89 (≈ 1.55 µM) |
| Cc1ccc(OCc2ccc(C(=O)N3CCCCC3)c(C)c2)c(-c2csc(N3C[C@H]4CC[C@@H](C3)[C@H]4C(=O)O)n2)c1 [Compound 283] | 60 | < 0.1 | – | 0.1 (≈ 0.179 µM) |
| Cc1ccc(OCc2c(C)cc(C(=O)N3CCN(C)C(=O)C3)cc2C)c(-c2csc(N3C[C@H]4CC[C@@H](C3)[C@H]4C(=O)O)n2)c1 [Compound 284] | 100 | 0.65 (≈ 1.08 µM) | – | 66 (≈ 109 µM) |
| Cc1ccc(OCc2c(C)cc(C(=O)N3CCOCC3)cc2C)c(-c2csc(N3C[C@H]4CC[C@@H](C3)[C@H]4C(=O)O)n2)c1 [Compound 285] | 120 | < 0.1 | – | 54 (≈ 93.8 µM) |
| Cc1ccc(OCc2ccc(C(=O)N3CCN(C)C(=O)C3)c(C)c2)c(-c2csc(N3C[C@H]4CC[C@@H](C3)[C@H]4C(=O)O)n2)c1 [Compound 286] | 37 | 1 (≈ 1.7 µM) | – | 83 (≈ 141 µM) |
| CCc1cc(C(=O)N2CCCCC2)ccc1COc1ccc(C)cc1-c1csc(N2C[C@H]3CC[C@@H](C2)[C@H]3C(=O)O)n1 [Compound 287] | 6.2 | < 0.1 | – | 21 (≈ 36.6 µM) |
| CCc1cc(C(=O)N2CCOCC2)ccc1COc1ccc(C)cc1-c1csc(N2C[C@H]3CC[C@@H](C2)[C@H]3C(=O)O)n1 [Compound 288] | 9.7 | < 0.1 | – | 29 (≈ 50.4 µM) |
| Cc1ccc(OCc2ccc(CN3CCN(C)C(=O)C3)cc2C)c(-c2csc(N3CC4CCC(C3)C4C(=O)O)n2)c1 (centres unmarked) [Compound 289] | 3.4 | 1.5 (≈ 2.61 µM) | – | 35 (≈ 60.9 µM) |
| Cc1ccc(OCc2ccc(CN3CCN(C)C(=O)C3C)cc2C)c(-c2csc(N3CC4CCC(C3)C4C(=O)O)n2)c1 (centres unmarked) [Compound 290] | 4.3 | 0.69 (≈ 1.17 µM) | – | 21 (≈ 35.7 µM) |
| CCN1CCN(Cc2ccc(COc3ccc(C)cc3-c3csc(N4CC5CCC(C4)C5C(=O)O)n3)c(C)c2)CC1=O (centres unmarked) [Compound 291] | 7.6 | 0.18 (≈ 0.306 µM) | – | 13 (≈ 22.1 µM) |
| Cc1ccc(OCc2ccc(CN3CCN(C(C)C)C(=O)C3)cc2C)c(-c2csc(N3CC4CCC(C3)C4C(=O)O)n2)c1 (centres unmarked) [Compound 293] | 29 | < 0.1 | – | 3.4 (≈ 5.64 µM) |
| Cc1ccc(OCc2ccc(C(=O)N(C)CCC#N)cc2C)c(-c2csc(N3C[C@H]4CC[C@@H](C3)[C@H]4C(=O)O)n2)c1 [Compound 296] | 50 | < 0.1 | – | 10 (≈ 17.9 µM) |
| Cc1ccc(OCc2ccc(C(=O)N(C)CCO)cc2C)c(-c2csc(N3C[C@H]4CC[C@@H](C3)[C@H]4C(=O)O)n2)c1 [Compound 297] | 100 | 1.7 (≈ 3.09 µM) | – | 63 (≈ 115 µM) |
| CCN(CCO)C(=O)c1ccc(COc2ccc(C)cc2-c2csc(N3C[C@H]4CC[C@@H](C3)[C@H]4C(=O)O)n2)c(C)c1 [Compound 298] | 59 | 0.32 (≈ 0.568 µM) | – | 66 (≈ 117 µM) |
| Cc1ccc(OCc2ccc(C(=O)N3CCCC3)cc2C)c(-c2csc(N3C[C@H]4CC[C@@H](C3)[C@H]4C(=O)O)n2)c1 [Compound 299] | 8.4 | 0.17 (≈ 0.312 µM) | – | 36 (≈ 66 µM) |
| Cc1ccc(OCc2ccc(C(=O)N3CCN(C)CC3)cc2C)c(-c2csc(N3C[C@H]4CC[C@@H](C3)[C@H]4C(=O)O)n2)c1 [Compound 300] | 44 | 53 (≈ 92.2 µM) | – | 60 (≈ 104 µM) |
| Cc1ccc(OCc2ccc(C(=O)N3CCC(O)CC3)cc2C)c(-c2csc(N3C[C@H]4CC[C@@H](C3)[C@H]4C(=O)O)n2)c1 [Compound 301] | 57 | 0.24 (≈ 0.417 µM) | – | 65 (≈ 113 µM) |

The remaining lines, values ahead:

| EC50 [1] [nM] | solubility [2, 3] [µg/mL] | solubility [2, 4] [µg/mL] | solubility [2, 5] [µg/mL] | Structure (SMILES) |
| --- | --- | --- | --- | --- |
| 35 | < 0.1 | – | 4.6 (≈ 8.02 µM) | Cc1ccc(OCc2ccc(C(=O)N3CCCCCC3)cc2C)c(-c2csc(N3C[C@H]4CC[C@@H](C3)[C@H]4C(=O)O)n2)c1 [Compound 302] |
| 11 | 0.13 (≈ 0.244 µM) | – | 36 (≈ 67.5 µM) | CCN(C)C(=O)c1ccc(COc2ccc(C)cc2-c2csc(N3C[C@H]4CC[C@@H](C3)[C@H]4C(=O)O)n2)c(C)c1 [Compound 303] |
| 23 | < 0.1 | – | 60 (≈ 115 µM) | Cc1ccc(OCc2ccc(C(=O)N(C)C)cc2C)c(-c2csc(N3C[C@H]4CC[C@@H](C3)[C@H]4C(=O)O)n2)c1 [Compound 304] |
| 140 | 62 (≈ 107 µM) | – | 67 (≈ 116 µM) | Cc1ccc(OCc2ccc(C(=O)N(C)CCN(C)C)cc2C)c(-c2csc(N3C[C@H]4CC[C@@H](C3)[C@H]4C(=O)O)n2)c1 [Compound 305] |
| 21 | 0.13 (≈ 0.22 µM) | 5.2 (≈ 8.82 µM) | 50 (≈ 84.8 µM) | Cc1ccc(OCc2ccc(C(=O)N(C)CC3CCCO3)cc2C)c(-c2csc(N3C[C@H]4CC[C@@H](C3)[C@H]4C(=O)O)n2)c1 (some centres unmarked) [Compound 306] |
| 24 | 0.15 (≈ 0.262 µM) | – | 37 (≈ 64.6 µM) | CCN(CCC#N)C(=O)c1ccc(COc2ccc(C)cc2-c2csc(N3C[C@H]4CC[C@@H](C3)[C@H]4C(=O)O)n2)c(C)c1 [Compound 307] |
| 20 | 0.88 (≈ 1.49 µM) | – | 66 (≈ 112 µM) | Cc1ccc(OCc2ccc(C(=O)N3CCN(C)C(=O)C3)cc2C)c(-c2csc(N3C[C@H]4CC[C@@H](C3)[C@H]4C(=O)O)n2)c1 [Compound 308] |
| 42 | < 0.1 | – | 63 (≈ 107 µM) | Cc1ccc(OCc2ccc(C(=O)N3CCC(CO)CC3)cc2C)c(-c2csc(N3C[C@H]4CC[C@@H](C3)[C@H]4C(=O)O)n2)c1 [Compound 309] |
| 99 | 59 (≈ 100 µM) | – | 61 (≈ 104 µM) | Cc1ccc(OCc2ccc(C(=O)N3CC[C@@H](N(C)C)C3)cc2C)c(-c2csc(N3C[C@H]4CC[C@@H](C3)[C@H]4C(=O)O)n2)c1 [Compound 310] |
| 29 | 58 (≈ 98.5 µM) | – | 63 (≈ 107 µM) | Cc1ccc(OCc2ccc(C(=O)N3CC[C@H](N(C)C)C3)cc2C)c(-c2csc(N3C[C@H]4CC[C@@H](C3)[C@H]4C(=O)O)n2)c1 [Compound 311] |
